# In ChEMBL document CHEMBL1155389, “Selectively nonselective kinase inhibition: striking the right balance” (J Med Chem, 2010):
# Legend:
# [1] = biological target: Tyrosine-protein kinase ABL1 (Homo sapiens, UniProt P00519)
# Description: Inhibition of wild type Abl
# [2] = biological target: Bcr/Abl fusion protein (Homo sapiens, UniProt P00519); assay type: protein assay
# Description: Inhibition of wild type Bcr-Abl
# [3] = Inhibition of GSK3
# [4] = biological target: Cyclin-dependent kinase 5 (Homo sapiens, UniProt Q00535); test: Inhibition of CDK5
# [5] = biological target: Dual specificity tyrosine-phosphorylation-regulated kinase 1A (Homo sapiens, UniProt Q13627); test: Inhibition of DYRK1A
# [6] = biological target: Mast/stem cell growth factor receptor Kit (Homo sapiens, UniProt P10721)
# [7] = biological target: T1, Dihydrofolate reductase (Homo sapiens, UniProt P00374); test: Inhibition of DHFR
# T1 sequence (P00374 whole entry): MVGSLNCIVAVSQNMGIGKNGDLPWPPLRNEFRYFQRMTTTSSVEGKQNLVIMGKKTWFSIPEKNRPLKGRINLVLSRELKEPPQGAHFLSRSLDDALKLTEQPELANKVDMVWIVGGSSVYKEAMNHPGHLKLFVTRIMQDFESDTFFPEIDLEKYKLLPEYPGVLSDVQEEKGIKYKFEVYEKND
# [8] = biological target: Vascular endothelial growth factor receptor 2 (Homo sapiens, UniProt P35968)
# [9] = Inhibition of HDAC
# [10] = biological target: Mitogen-activated protein kinase 10 (Homo sapiens, UniProt P53779); test: Inhibition of JNK3
# [11] = Inhibition of p38
# [12] = biological target: Cyclin-dependent kinase 1 (Homo sapiens, UniProt P06493); test: Inhibition of CDK1
# [13] = biological target: Glycogen synthase kinase-3 beta (Homo sapiens, UniProt P49841); test: Inhibition of GSK3-beta
# [14] = biological target: Casein kinase I isoform alpha (Homo sapiens, UniProt P48729); test: Inhibition of CK1
# [15] = Inhibition of PDGFR
# [16] = biological target: RAC-alpha serine/threonine-protein kinase (Homo sapiens, UniProt P31749)
# [17] = biological target: Insulin-like growth factor 1 receptor (Homo sapiens, UniProt P08069)
# Insulin-like growth factor 1 receptor, sequence (P08069 31-736 limits assumed): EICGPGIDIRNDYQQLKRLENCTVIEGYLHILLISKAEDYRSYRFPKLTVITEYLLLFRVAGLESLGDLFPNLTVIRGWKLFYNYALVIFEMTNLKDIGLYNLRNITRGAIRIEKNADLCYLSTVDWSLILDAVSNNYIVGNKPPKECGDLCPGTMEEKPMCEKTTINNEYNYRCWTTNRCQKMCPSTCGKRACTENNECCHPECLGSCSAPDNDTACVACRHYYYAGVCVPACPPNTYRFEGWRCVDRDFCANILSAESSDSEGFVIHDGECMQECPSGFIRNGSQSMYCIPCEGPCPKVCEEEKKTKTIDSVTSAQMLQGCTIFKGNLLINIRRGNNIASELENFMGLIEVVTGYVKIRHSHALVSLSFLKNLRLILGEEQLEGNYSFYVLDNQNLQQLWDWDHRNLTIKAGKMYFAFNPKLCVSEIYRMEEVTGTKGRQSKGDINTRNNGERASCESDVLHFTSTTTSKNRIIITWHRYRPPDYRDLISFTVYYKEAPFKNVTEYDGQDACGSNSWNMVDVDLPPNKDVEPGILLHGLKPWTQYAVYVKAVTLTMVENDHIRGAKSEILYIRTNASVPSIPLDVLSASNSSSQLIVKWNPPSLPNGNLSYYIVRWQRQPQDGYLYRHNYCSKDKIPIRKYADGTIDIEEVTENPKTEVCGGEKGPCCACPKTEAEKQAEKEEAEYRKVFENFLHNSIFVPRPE
# Insulin-like growth factor 1 receptor, sequence (P08069 741-1367 limits assumed): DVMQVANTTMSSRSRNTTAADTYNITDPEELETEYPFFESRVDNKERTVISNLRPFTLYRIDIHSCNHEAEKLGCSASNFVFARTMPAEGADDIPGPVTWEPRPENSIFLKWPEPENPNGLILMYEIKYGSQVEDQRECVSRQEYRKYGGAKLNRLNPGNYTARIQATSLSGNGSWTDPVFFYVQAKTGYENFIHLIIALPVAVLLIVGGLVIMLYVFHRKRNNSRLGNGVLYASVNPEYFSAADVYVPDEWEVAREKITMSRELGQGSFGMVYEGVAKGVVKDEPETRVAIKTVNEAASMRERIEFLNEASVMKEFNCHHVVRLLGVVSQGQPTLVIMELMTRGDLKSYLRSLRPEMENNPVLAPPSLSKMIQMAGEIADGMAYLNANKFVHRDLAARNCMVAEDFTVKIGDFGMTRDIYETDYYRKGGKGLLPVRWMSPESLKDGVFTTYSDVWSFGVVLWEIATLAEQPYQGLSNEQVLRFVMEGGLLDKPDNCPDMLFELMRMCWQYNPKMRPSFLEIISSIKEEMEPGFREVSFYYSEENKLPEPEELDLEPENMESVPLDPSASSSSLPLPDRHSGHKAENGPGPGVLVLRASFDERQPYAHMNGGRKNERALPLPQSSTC
# [18] = biological target: Receptor tyrosine-protein kinase erbB-2 (Homo sapiens, UniProt P04626)
# [19] = biological target: Epidermal growth factor receptor (Homo sapiens, UniProt P00533)
# Epidermal growth factor receptor, sequence (P00533 whole entry): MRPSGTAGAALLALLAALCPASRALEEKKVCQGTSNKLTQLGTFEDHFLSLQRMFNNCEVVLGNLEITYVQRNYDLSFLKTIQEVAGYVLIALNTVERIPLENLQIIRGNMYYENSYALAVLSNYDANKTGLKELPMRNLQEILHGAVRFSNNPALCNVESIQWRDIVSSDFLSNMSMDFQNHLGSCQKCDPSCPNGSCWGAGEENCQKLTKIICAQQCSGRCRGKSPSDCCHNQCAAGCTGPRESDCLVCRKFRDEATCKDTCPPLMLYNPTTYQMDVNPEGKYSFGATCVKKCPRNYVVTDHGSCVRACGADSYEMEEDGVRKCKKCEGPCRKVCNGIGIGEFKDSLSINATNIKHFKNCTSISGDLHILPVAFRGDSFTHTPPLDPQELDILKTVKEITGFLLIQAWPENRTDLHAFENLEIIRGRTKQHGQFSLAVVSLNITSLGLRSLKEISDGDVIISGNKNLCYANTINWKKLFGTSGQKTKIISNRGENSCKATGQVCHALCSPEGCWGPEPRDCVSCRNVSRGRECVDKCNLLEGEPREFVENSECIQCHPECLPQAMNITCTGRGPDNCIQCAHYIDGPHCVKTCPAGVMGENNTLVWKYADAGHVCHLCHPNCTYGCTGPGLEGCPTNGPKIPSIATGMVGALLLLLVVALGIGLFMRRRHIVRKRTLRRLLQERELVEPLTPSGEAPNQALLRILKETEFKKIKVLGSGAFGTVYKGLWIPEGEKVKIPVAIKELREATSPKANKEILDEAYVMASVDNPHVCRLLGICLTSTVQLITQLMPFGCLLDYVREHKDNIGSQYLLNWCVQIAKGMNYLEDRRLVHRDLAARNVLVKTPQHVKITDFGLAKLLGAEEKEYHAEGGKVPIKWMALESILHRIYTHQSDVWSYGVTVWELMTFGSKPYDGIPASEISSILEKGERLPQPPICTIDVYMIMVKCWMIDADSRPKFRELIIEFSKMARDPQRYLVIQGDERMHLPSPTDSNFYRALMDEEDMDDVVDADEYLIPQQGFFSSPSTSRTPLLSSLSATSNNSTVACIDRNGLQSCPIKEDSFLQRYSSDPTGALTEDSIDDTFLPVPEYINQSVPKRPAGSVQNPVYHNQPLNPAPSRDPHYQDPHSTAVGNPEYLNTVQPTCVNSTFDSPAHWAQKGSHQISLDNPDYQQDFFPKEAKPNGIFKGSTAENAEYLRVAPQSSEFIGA
# [20] = Oral bioavailability in mouse; assay type: ADME, organism-based; details: in vivo
# [21] = biological target: Voltage-gated inwardly rectifying potassium channel KCNH2 (Homo sapiens, UniProt Q12809); test: Inhibition of ERG
# [22] = biological target: Nitric oxide synthase, inducible (Homo sapiens, UniProt P35228); test: Inhibition of iNOS
# [23] = biological target: Proto-oncogene tyrosine-protein kinase Src (Homo sapiens, UniProt P12931)
# Bcr/Abl fusion protein, sequence (P00519 whole entry, the tested form may be a part): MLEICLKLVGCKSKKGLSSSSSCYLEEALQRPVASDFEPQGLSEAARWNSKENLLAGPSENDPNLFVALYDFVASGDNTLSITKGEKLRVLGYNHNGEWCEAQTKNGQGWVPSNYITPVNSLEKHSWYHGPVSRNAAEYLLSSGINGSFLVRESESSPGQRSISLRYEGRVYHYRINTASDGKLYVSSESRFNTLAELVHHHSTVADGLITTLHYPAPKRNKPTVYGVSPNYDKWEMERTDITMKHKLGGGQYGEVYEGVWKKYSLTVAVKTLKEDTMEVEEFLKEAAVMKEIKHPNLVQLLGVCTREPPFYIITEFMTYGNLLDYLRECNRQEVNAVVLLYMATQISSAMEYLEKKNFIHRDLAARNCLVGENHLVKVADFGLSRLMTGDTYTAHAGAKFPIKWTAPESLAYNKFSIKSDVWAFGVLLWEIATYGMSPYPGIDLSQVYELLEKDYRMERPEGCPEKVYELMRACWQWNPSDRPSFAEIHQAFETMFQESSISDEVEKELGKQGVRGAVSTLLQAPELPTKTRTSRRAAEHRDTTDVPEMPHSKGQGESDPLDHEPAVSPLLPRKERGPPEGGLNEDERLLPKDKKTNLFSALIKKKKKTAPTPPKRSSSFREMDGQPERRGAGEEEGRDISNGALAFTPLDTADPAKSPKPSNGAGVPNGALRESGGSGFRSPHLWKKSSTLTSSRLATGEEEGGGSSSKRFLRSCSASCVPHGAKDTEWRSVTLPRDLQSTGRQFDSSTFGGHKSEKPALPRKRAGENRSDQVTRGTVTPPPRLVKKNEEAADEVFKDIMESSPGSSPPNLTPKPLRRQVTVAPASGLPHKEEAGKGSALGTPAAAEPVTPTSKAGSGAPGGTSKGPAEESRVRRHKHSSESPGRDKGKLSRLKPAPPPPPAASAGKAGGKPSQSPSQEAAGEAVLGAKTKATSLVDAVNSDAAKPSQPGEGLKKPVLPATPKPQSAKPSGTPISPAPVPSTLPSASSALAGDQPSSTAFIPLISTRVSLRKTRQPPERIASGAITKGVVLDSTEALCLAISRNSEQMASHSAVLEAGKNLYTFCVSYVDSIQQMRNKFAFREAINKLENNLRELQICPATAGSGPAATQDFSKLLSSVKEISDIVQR
# Bcr/Abl fusion protein, sequence (P11274 whole entry, further chain, the tested form may be a part): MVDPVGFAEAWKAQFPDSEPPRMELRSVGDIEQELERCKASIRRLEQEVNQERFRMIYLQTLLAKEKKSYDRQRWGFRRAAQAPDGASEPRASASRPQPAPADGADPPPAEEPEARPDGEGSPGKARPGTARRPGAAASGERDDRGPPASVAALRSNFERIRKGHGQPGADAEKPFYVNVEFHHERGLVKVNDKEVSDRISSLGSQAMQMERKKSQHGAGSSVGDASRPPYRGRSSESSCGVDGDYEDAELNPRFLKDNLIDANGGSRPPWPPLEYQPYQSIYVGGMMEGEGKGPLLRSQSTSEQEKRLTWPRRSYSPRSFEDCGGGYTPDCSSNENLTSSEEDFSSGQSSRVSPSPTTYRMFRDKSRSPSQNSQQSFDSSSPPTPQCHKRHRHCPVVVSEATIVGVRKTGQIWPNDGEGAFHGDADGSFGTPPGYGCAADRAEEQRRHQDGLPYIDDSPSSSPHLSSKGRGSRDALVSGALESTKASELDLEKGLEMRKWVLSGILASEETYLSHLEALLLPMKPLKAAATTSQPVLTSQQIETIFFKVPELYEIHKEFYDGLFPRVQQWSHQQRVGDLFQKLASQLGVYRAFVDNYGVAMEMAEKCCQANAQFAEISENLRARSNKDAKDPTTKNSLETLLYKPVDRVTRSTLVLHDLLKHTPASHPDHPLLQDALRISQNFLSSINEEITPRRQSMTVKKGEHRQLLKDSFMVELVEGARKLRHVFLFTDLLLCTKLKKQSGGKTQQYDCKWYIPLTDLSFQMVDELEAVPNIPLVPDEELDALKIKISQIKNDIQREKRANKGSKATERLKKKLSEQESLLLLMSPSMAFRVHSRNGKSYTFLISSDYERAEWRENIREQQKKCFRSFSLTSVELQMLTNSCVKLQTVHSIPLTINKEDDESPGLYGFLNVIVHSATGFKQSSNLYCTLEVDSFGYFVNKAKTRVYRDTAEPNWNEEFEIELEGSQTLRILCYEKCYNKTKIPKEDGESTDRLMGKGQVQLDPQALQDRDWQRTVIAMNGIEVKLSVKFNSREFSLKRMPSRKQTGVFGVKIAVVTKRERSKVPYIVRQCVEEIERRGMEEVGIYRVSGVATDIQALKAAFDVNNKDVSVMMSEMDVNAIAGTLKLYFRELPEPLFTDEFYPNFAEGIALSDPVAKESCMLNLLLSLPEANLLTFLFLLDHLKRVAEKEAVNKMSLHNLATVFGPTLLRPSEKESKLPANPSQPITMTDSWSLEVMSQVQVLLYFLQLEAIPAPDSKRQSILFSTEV
# Tyrosine-protein kinase ABL1, sequence (P00519 whole entry, the tested form may be a part): as the sequence (P00519 whole entry, the tested form may be a part) above
smiles,measurement,setting,value
Cc1cn(-c2cc(NC(=O)c3ccc(C)c(/C=C/N4CNc5c(NC6CC6)ncnc54)c3)cc(C(F)(F)F)c2)cn1,IC50,[1],25 nM
same,IC50,[2],8 nM
N#Cc1c(N)cc2[nH]nc(N)c2c1-c1ccccc1,IC50,[3],15000 nM
same,IC50,[4],11000 nM
same,IC50,[5],410 nM
Cc1ccc(-c2ccnc(Nc3cc(NC(=O)c4ccc(CN5CCN(C)CC5)cc4)ccc3C)n2)cn1,IC50,[6],43 nM
same,IC50,[2],11000 nM
C/C(=C/c1coc2nc(N)nc(N)c12)c1cccc2ccccc12,IC50,[7],10000 nM
same,IC50,[8],2000 nM
Cc1ccc(NC(=O)c2ccc(/C=C/C(=O)NO)cc2)cc1Nc1nc(-c2cccnc2)cs1,IC50,[2],2700 nM
same,IC50,[9],80 nM
c1ccc(-c2noc(CN3CCCCC3)c2-c2ccnc(NC3CCCCC3)n2)cc1,IC50,[10],26 nM
same,IC50,[11],2 nM
CCC(CO)Nc1nc(Nc2cccc(-c3ccccn3)c2)c2ncn(C(C)C)c2n1 (stereo unspecified),IC50,[12],220 nM
same,IC50,[13],4100 nM
same,IC50,[14],14 nM
Nc1ncnc2c1c(-c1cnc3[nH]ccc3c1)nn2C1CCCC1,IC50,[15],2 nM
Cn1nnnc1-c1cnc(-c2ccc(CN3CCC(n4c(=O)[nH]c5ccccc54)CC3)cc2)c(-c2ccccc2)c1,IC50,[16],273 nM
COCCCN1CCC([C@H]2CC[C@H](n3nc(-c4ccc5nc(Cc6ccccc6Cl)[nH]c5c4)c4c(N)ncnc43)CC2)CC1,IC50,[17],81 nM
same,IC50,[18],54 nM
same,IC50,[19],58 nM
COc1ccccc1Cc1nc2ccc(-c3nn([C@H]4CC[C@H](C5CCN(C)CC5)CC4)c4ncnc(N)c34)cc2[nH]1,IC50,[17],81 nM
same,bioavailability,[20],12%
same,IC50,[19],58 nM
c1ccc(-c2cc3c(ccn4cnnc34)nc2-c2ccc(CN3CCC(c4nnc(-c5ccccn5)[nH]4)CC3)cc2)cc1,IC50,[21],> 10000 nM
Cc1cc2c(Nc3ccc4nc(N)sc4c3)c(C#N)cnc2cc1OCCN1CCCCC1,IC50,[22],313000 nM
same,IC50,[23],15 nM
C#Cc1cccc(Nc2ncnc3cc(OC)c(OCCCCCCC(=O)NO)cc23)c1 [CUDC-101],IC50,[9],4.4 nM
Cc1ccc(NC(=O)c2ccc(CN3CCN(C)CC3)cc2)cc1Nc1nccc(-c2cccnc2)n1 [IMATINIB],IC50,[15],39 nM
same,IC50,[9],> 100 nM
Cc1cn(-c2cc(NC(=O)c3ccc(C)c(Nc4nccc(-c5cccnc5)n4)c3)cc(C(F)(F)F)c2)cn1 [NILOTINIB],IC50,[15],25 nM
